In patent US9486535B2, “Methods of making and using nanostructures” (REGENTS OF THE UNIVERSITY OF MINNESOTA, priority 2012, dated 2016):
Like-named read-outs stand apart in the source and are kept apart here. Values belong to the compound of their own block, whether it stands above or below them. {bisMTX} = bis-methotrexate conjugate; {Fluorescein} = fluorescein label

Columns and labels:
HPB-MLT cells [1] = assay: Fluorescence confocal microscopy of internalization; format: cell-based; conditions: 37° C., 1 hr
Description: BisMTX-FITC (or BisMTX-PG) and the appropriate DHFR fusion protein were mixed (250 nM) and added to 0.5×10^6 HPB-MLT cells at either 4 or 37° C. for 1 hr in RPMI media. Cells were then pelleted by centrifugation (400×g, 5 min). After being washed twice with PBS (phosphate buffered saline) cells were incubated on Poly-Prep slides coated with poly-L-Lysine (Sigma) at 4 or 37° C. for 30 mins. Cells were then fixed with 4% paraformaldehyde solution for 10 mins and washed thrice with PBS. Finally, cells were treated with ProLong Gold Antifade reagent with DAPI (Invitrogen), a cover slip was applied.
After overnight incubation, images were taken within inner sections of the cells by sequential scanning using a fluorescence confocal microscopy using an Olympus FluoView 1000 BX2 Upright Confocal microscope. Resulting images are the compression of 3-5 z-axis slices. For disassembly experiments after the initial one hour incubation cells were washed twice with PBS before being resuspended in media containing 2 mM trimethoprim, 0.5 mM pyrimethamine or DMSO for three hours at 37° C. after which time they were processed as above. […]
0.5×10^6 HPB-MLT cells were treated with FITC or BODIPY labeled constructs (1 μM) at either 4 or 37° C. for 1 hr in RPMI media. […] After overnight incubation they were imaged by fluorescence confocal microscopy using a Olympus FluoView 1000 BX2 Upright Confocal microscope. […]

HPB-MLT cells [2] = assay: Cytotoxicity analysis (CellTiter 96 AQueous cell proliferation assay); format: cell-based
Description: 2.5×10^4 HPB-MLT cells were mixed with the appropriate concentration of antiCD3 CSANs in a total volume of 90 uL and incubated at 37° C. for one hour. […] Cell viability was determined using CellTiter 96 AQueous Non-Radioactive Cell Proliferation Assay (Promega).

DHFR = conditions: cited from earlier work
HPB-MLT cells [3] = assay: Flow cytometry binding to CD3+ cells; format: cell-based; conditions: 4° C., 1 hr
Description: 1×10^6 HPB-MLT (or Raji) cells were treated with BisMTX-FITC containing CSAN constructs at the required concentrations at 4° C. for 1 hr in PBS buffer (containing 0.05% BSA and 0.1% sodium azide). Cells were centrifuged (400×g, 10 min), washed twice with PBS/BSA/sodium azide buffer before being resuspended in the same buffer. Their fluorescence was analyzed with a FACSCalibur flow cytometer (BD Biosciences). For competition experiments, HPB-MLT cells were incubated with 40 nM UCHT-1 on ice for 10 mins prior to addition BisMTX-FITC CSAN constructs anti-CD3 constructs (100 nM) followed by washing as above. For disassembly experiments HPB-MLT cells were treated with 150 nM CSANs or 3.95 nM UCHT-1 FITC for 1 hour at 37° C. before being washed twice with RPMI media and finally resuspended in media. […] Samples were stored at 4° C. in the dark until analyzed.
1×10^6 HPB-MLT cells were treated with FITC or BODIPY labeled constructs (1/0.5/0.1 μM) at 4° C. for 1 hr in PBS buffer (containing 0.05% BSA and 0.1% sodium azide). Cells were pelleted (400×g, 10 min), washed twice, and finally resuspended in the supplemented PBS and their fluorescence was analyzed with a FACSCalibur flow cytometer (BD Biosciences). […] After 1 hr incubation cells were washed, resuspended and analyzed by flow cytometry. […]

Solubility in water = format: physicochemical

Compound: CN(Cc1cnc2nc(N)nc(N)c2n1)c1ccc(C(=O)N[C@@H](CCC(=O)NCCCCCN(CCCCCNC(=O)CC[C@@H](NC(=O)c2ccc(N(C)Cc3cnc4nc(N)nc(N)c4n3)cc2)C(=O)O)CCOCCOCCNC(=S)Nc2cccc(-c3c4ccc(=O)cc-4oc4cc(O)ccc34)c2C(=O)O)C(=O)O)cc1 [bisMTX-FITC]
internalization (confocal) (HPB-MLT cells [1]): no observable internalized fluorescence

Compound: bis-methotrexate [bisMTX]
toxicity to HPB-MLT cells (HPB-MLT cells [2]): non-toxic
IC50 (HPB-MLT cells [2]; 72 h; read-out: IC50 (inhibition of cellular proliferation)): > 20 µM

Compound: CN(Cc1cnc2nc(N)nc(N)c2n1)c1ccc(C(=O)N[C@@H](CCC(=O)O)C(=O)O)cc1 [MTX, methotrexate]
IC50 (HPB-MLT cells [2]; 72 h, read-out: IC50 (inhibition of cellular proliferation)): 0.6 µM
IC80 (HPB-MLT cells [2]; 72 h; read-out: IC80 (inhibition of cellular proliferation)): > 50 µM
enhancement of the affinity of MTX for DHFR by NADPH (DHFR): at least 100 fold

Compound: 5′ Fluorescein-TGTCATATTCCTGGATCC-Bis-MTX 3′ (5' {Fluorescein}, 3' {bisMTX}, sugars by position and backbone not given here; further chemistry not fully specified) [bis-MTX oligo FITC, bis-MTX oligo conjugate labelled with fluorescein]
internalization (confocal) (HPB-MLT cells [1]): no increased cellular fluorescence
cell fluorescence relative to unstained/untreated cells (binding) (HPB-MLT cells [3]): only a small increase in fluorescence

solubility in water (Solubility in water): water soluble
Compound: CN(Cc1cnc2nc(N)nc(N)c2n1)c1ccc(C(=O)N[C@@H](CCC(=O)NCCCCCN(CCCCCNC(=O)CC[C@@H](NC(=O)c2ccc(N(C)Cc3cnc4nc(N)nc(N)c4n3)cc2)C(=O)O)CCOCCOCCN)C(=O)O)cc1 [bis-MTX-NH2]
